From the C3SDB collision cross section collection
Several values for one entry are separate records, joined by “and”; a condition that tells them apart may be missing. Identical values can stand only once.

Experiments:
[1] = instrument: DT, single field
[2] = instrument: DT, single field, calibrated with Agilent tune mix (Agilent)
[3] = instrument: DT, stepped-field

Compound	collision cross section (N2) ([1]; [M+NH4]+)	collision cross section (N2) ([2]; [M+NH4]+) [Å²]	collision cross section (N2) ([1]; [M+Na]+)	other results
CCCCCC/C=C\CCCCCCCC(=O)OC[C@H](CO)OC(=O)CCCCCCCCCCCCCCCCC [DG(34:1)]	260.44 Å² and 262.5 Å²	261.1	–	–
CCCCC/C=C\CCCCCCCC(=O)O[C@H](COC(=O)CCCCCCC/C=C\CCCCCC)COP(=O)([O-])OCC[N+](C)(C)C [PC(31:2)]	–	–	–	collision cross section (N2) ([1]; [M+H]+): 272.28 Å²; collision cross section (N2) ([3]; [M+K]+): 283.6 Å²
CCCCC/C=C\C/C=C\CCCCCCCCCC(=O)O[C@H](COC(=O)CCCCCCCCCCCC)COP(=O)([O-])OCC[N+](C)(C)C [PC(33:2)]	–	–	–	collision cross section (N2) ([1]; [M+H]+): 279.23 Å²; collision cross section (N2) ([2]; [M+H]+): 279.8 Å²; collision cross section (N2) ([3]; [M+K]+): 291.5 Å²
CCCCCCCCCCCCC=CC[C@@H](O)[C@H](COP(=O)([O-])OCC[N+](C)(C)C)NC(=O)CCCCCCCCCCCCCCCCCCCCC [SM(40:1)]	–	–	–	collision cross section (N2) ([1]; [M+H]+): 299.29 Å²; collision cross section (N2) ([2]; [M+HCOO]-): 297.5 Å²; collision cross section (N2) ([2]; [M+H]+): 300.7 Å²; collision cross section (N2) ([2]; [M+Na]+): 300.5 Å²; collision cross section (N2) ([3]; [M+Na]+): 303.9 Å²
CCCCCCCCCCCCC=CC[C@@H](O)[C@H](COP(=O)([O-])OCC[N+](C)(C)C)NC(=O)CCCCCCCCCCCCCCCCCCCCCCCC [SM(43:1)]	–	–	–	collision cross section (N2) ([1]; [M+H]+): 308.58 Å²; collision cross section (N2) ([3]; [M+Na]+): 312.5 Å²
CCCCCCCCCCCCCCCC(=O)OC[C@@H](COC(=O)CCCCCCCCCCC)OC(=O)CCCCCCCCCCC [TG(40:0)]	–	285	282.67 Å² and 283.77 Å²	–
C(OC(=O)CCCCCCCCCCCCC)[C@]([H])(OC(CCCCCCCCCCCCC)=O)COC(CCCCCCCCCCCCC)=O [TG(42:0)]	–	–	289.67 Å² and 290.31 Å²	–
CCCC/C=C\CCCCCCCC(=O)O[C@@H](COC(=O)CCCCCCC/C=C\CCCCC)COC(=O)CCCCCCCCCCCC [TG(42:2)]	286.83 Å² and 289.71 Å²	–	285.72 Å² and 288.76 Å²	–
CCCCC/C=C\C/C=C\CCCCCCCCCC(=O)OC[C@@H](COC(=O)CCCCCCCCCCC)OC(=O)CCCCCCCCCCC [TG(44:2)]	294.01 Å² and 295.78 Å² and 296.41 Å²	292.9	292.91 Å² and 295.34 Å²	–
CCCCCCCCCCCCCCCCCC(=O)OC[C@@H](COC(=O)CCCCCCCCCCC)OC(=O)CCCCCCCCCCCCCCCCC [TG(48:0)]	310.54 Å² and 314.67 Å² and 312.34 Å²	–	–	–
CCCCCCCC/C=C\CCCCCCCC(=O)OC[C@@H](COC(=O)CCCCCCCCCCC)OC(=O)CCCCCCC/C=C\CCCCCCCC [TG(48:2)]	307.53 Å² and 309.7 Å² and 313.52 Å²	308.3	306.66 Å² and 308.69 Å²	–
CCCCCCCCC/C=C\CCCCCCCC(=O)OC[C@@H](COC(=O)CCCCCCCCCCC)OC(=O)CCCCCCC/C=C\CCCCCCCCC [TG(50:2)]	–	315.8	313.04 Å² and 315.16 Å²	–
CCCCC/C=C\C/C=C\C/C=C\CCCCCCCCC(=O)OC[C@@H](COC(=O)CCCCCCCCCCCCC)OC(=O)CCCCCCCCCCCCC [TG(50:3)]	311.73 Å² and 314.12 Å²	313	310.81 Å² and 313.16 Å²	–
CCCCCCCCCCCCCCCCCCC(=O)OC[C@@H](COC(=O)CCCCCCCCCCCC)OC(=O)CCCCCCCCCCCCCCCCCC [TG(51:0)]	324.83 Å² and 327.28 Å²	–	–	–
CCCCCCCCC/C=C\CCCCCCCC(=O)OC[C@@H](COC(=O)CCCCCCCCCCCC)OC(=O)CCCCCCC/C=C\CCCCCCCCC [TG(51:2)]	–	317.2	315.77 Å² and 317.68 Å²	–
CCCCC/C=C\CCCCCCCC(=O)OC[C@H](COC(=O)CCCCCCC/C=C\CCCCCCCC)OC(=O)CCCCCCC/C=C\CCCCCCCC [TG(51:3)]	314.4 Å² and 316.33 Å² and 320.05 Å²	314.6	313.29 Å² and 315.37 Å²	–
CCCC/C=C\C/C=C\CCCCCCCC(=O)O[C@@H](COC(=O)CCCCCCC/C=C\C/C=C\CCCCC)COC(=O)CCCCCCCCCCCCCCC [TG(51:4)]	312.43 Å² and 314.2 Å² and 317.35 Å²	312.1	313.17 Å²	–
CCCCCCC/C=C\CCCCCCCC(=O)O[C@H](COC(=O)CCCCCCCCCCCCCCCC)COC(=O)CCCCCCCCCCCCCCCCC [TG(52:1)]	–	323.6	320.83 Å² and 322.81 Å²	–

Compound	collision cross section (N2) ([1]; [M+NH4]+)	collision cross section (N2) ([2]; [M+NH4]+) [Å²]	collision cross section (N2) ([1]; [M+Na]+)	other results
CCCCC/C=C\C/C=C\C/C=C\CCCCC(=O)O[C@H](COC(=O)CCCCCCCCCCC)COC(=O)CCCCCCCCCCC/C=C\C/C=C\CCCCC [TG(52:5)]	–	314.7	312.33 Å² and 314.31 Å²	–
CC/C=C\C/C=C\C/C=C\C/C=C\C/C=C\C/C=C\CCC(=O)OC[C@@H](COC(=O)CCCCCCCCCCC)OC(=O)CCCCCCC/C=C\CCCCCCCC [TG(52:7)]	313.4 Å²	–	–	–
CCCCCCCCCCCCCCCCCCCC(=O)OC[C@@H](COC(=O)CCCCCCCCCCCC)OC(=O)CCCCCCCCCCCCCCCCCCC [TG(53:0)]	331.32 Å²	–	–	–
CCCCCCCCC/C=C\CCCCCCCC(=O)OC[C@@H](COC(=O)CCCCCCCCCCCCCCC)OC(=O)CCCCCCC/C=C\CCCCCCCCC [TG(54:2)]	–	–	324.71 Å² and 326.86 Å²	–
CCCCC/C=C\C/C=C\C/C=C\C/C=C\CCCC(=O)OC[C@@H](COC(=O)CCCCCCC/C=C\CCCCCC)OC(=O)CCCC/C=C\C/C=C\C/C=C\CCCCC [TG(54:8)]	316.06 Å²	–	–	–
CCCCCCCCCCCCCCCCCCCCC(=O)OC[C@@H](COC(=O)CCCCCCCCCCCC)OC(=O)CCCCCCCCCCCCCCCCCCCC [TG(55:0)]	338.57 Å²	–	–	–
CCCCC/C=C\C/C=C\CCCCCCCCCC(=O)O[C@H](COC(=O)CCCCCCCCCCCC)COC(=O)CCCCCCCCCCCCCCCCCCCCC [TG(55:2)]	332.67 Å² and 335.01 Å²	329.2	–	–
CCCCCCC/C=C\CCCCCCCC(=O)OC[C@H](COC(=O)CCCCCCCCC/C=C\CCCCCCCCCC)OC(=O)CCCCCCC/C=C\CCCCCCC [TG(56:3)]	–	332.6	331.24 Å²	–
CCCCC/C=C\C/C=C\CCCCCCCCCCCC(=O)OC[C@@H](COC(=O)CCCCCCCCCCC)OC(=O)CCCCCCCCCCC/C=C\C/C=C\CCCCC [TG(56:4)]	327.84 Å² and 330.13 Å² and 333.95 Å²	330.8	329.41 Å²	–
CCCCC/C=C\C/C=C\CCCCCCCCCC(=O)OC[C@@H](COC(=O)CCCCCCC/C=C\C/C=C\CCCCC)OC(=O)CCCCCCC/C=C\CCCCCCCCC [TG(57:5)]	334.96 Å²	–	–	–
CC/C=C\C/C=C\C/C=C\C/C=C\C/C=C\CCCC(=O)O[C@H](COC(=O)CCCCCCCCCCCCCCC)COC(=O)CCCCCCCCCCCCCCCCCCCCC [TG(58:5)]	334.35 Å²	334.6	–	–
CC/C=C\C/C=C\C/C=C\C/C=C\C/C=C\CCCCCC(=O)OC[C@@H](COC(=O)CCCCCCCCCCCCCCCCC)OC(=O)CCCCCCC/C=C\C/C=C\CCCCC [TG(58:7)]	331.34 Å² and 332.87 Å²	–	331.1 Å²	–
CC/C=C\C/C=C\C/C=C\CCCCCCCC(=O)O[C@H](COC(=O)CCCCCCC/C=C\C/C=C\CCCCC)COC(=O)CCCCCCCC/C=C\C/C=C\C/C=C\CCCCC [TG(58:8)]	330.76 Å² and 329.67 Å²	–	–	–
CCCCCCCCC/C=C\CCCCCCCC(=O)OC[C@H](COC(=O)CCCCCCCCCCCCCCCCCCC)OC(=O)CCCCCCCCCCCCCCCCCCC [TG(59:1)]	347.61 Å²	–	–	–
CCCC/C=C\C/C=C\CCCCCCCC(=O)OC[C@H](COC(=O)CCCCCCCCCCCCCCCCCCCCC)OC(=O)CCCCCCCCCCCCCCCCCCC [TG(59:2)]	343.68 Å² and 345.92 Å²	–	–	–
CCCC/C=C\C/C=C\CCCCCCCC(=O)OC[C@H](COC(=O)CCCCCCCCCCCCCCCCCCCCC)OC(=O)CCCCCCCCC/C=C\CCCCCCCC [TG(59:3)]	342.22 Å² and 344.48 Å²	337.6	–	–
CCCCC/C=C\C/C=C\C/C=C\CCCCCCCCC(=O)OC[C@@H](COC(=O)CCCCCCC/C=C\CCCCCCC)OC(=O)CCCCCCCCC/C=C\CCCCCCCC [TG(59:5)]	338.34 Å² and 341.2 Å²	–	–	–
CC/C=C\C/C=C\C/C=C\C/C=C\C/C=C\C/C=C\CCC(=O)OC[C@@H](COC(=O)CCCCCCC/C=C\CCCCC)OC(=O)CCCCCCCCCCCCCCCCCCCCC [TG(59:7)]	337.86 Å²	–	–	–
